Literature values in patent US20090093506A1, “Copper antagonist compositions” (priority 2007, published 2009).

Columns and labels:
[1] = not given; remark: listed apart in the source
[2] = solution of the free base itself

Structure (SMILES): CC(C)(S)[C@@H](N)C(=O)O [Penicillamine, 3-mercapto-D-valine]
- solubility in acetone (acetone): insoluble
- solubility in alcohol (alcohol): slightly soluble
- solubility in benzene (benzene): insoluble
- solubility in carbon tetrachloride (carbon tetrachloride): insoluble
- solubility in ether (ether): insoluble
- solubility in water (water): freely soluble

Structure (SMILES): CC(=O)[O-].CC(=O)[O-].[Zn+2] [Zinc acetate]
- long-term or major side effects ([1]; patients with Wilson's disease): has not shown any long-term or major side effects

Structure (SMILES): COCc1c(C(C)C)nc(C(C)C)c(/C=C/[C@@H](O)C[C@@H](O)CC(=O)O)c1-c1ccc(F)cc1 [cerivastatin]
- rhabdomyolysis ([1]; patients receiving the drug, withdrawn from the U.S. market August 2001): seen to occur more often

Structure (SMILES): NCCNCCNCCN [trientine, triethylenetetramine]
- pH of a solution [2]: 14
